Measured values published in publication PMC7180948, “New Insights into 4-Anilinoquinazolines as Inhibitors of Cardiac Troponin I–Interacting Kinase (TNNi3K)” (Molecules, 2020).

Assays:
Assay in all cases: biochemical
Parameters in all cases: KINOMEscan competition binding panel (Eurofins DiscoverX), single concentration, % inhibition
Conditions in all cases: read-out: 7 at 1 µM % inhibition
DCAMKL3 = biological target: T1, DCAMKL3 (Homo sapiens, UniProt Q9C098)
T1 construct: gene DCLK3
Experimental: (§1) KinomeScan® Assay on 7 and 15 was performed as previously described by EuroFins DiscoverX [24]. GSK114 (7) and 15 were submitted for a KINOMEscan® assay to explore the selectivity profile across >400 human kinases at a compound concentration of 1 µM. […] GSK114 (7) is a narrow-spectrum TNNi3K inhibitor but has some potent off-targets including GAK which has been previously reported for this chemotype. […] If utilized together this set of compounds could be useful to investigate TNNi3K biology.

MEK3 = biological target: T2, MEK3 (Homo sapiens, UniProt P46734)
T2 construct: gene MAP2K3
T2 sequence (P46734 whole entry): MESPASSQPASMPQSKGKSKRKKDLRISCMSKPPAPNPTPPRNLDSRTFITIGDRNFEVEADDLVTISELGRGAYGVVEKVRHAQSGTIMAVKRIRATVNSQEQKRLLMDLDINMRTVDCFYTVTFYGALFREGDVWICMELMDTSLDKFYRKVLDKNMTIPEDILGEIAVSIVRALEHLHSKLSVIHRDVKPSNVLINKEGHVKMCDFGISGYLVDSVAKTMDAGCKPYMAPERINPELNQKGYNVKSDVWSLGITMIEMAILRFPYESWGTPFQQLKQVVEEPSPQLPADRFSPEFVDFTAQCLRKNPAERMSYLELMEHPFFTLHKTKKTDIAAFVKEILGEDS
Experimental: as §1

CDKL1 = CDKL1 (Homo sapiens, UniProt Q00532)
Experimental: as §1

MET(M1250T) = MET(M1250T) (Homo sapiens, UniProt P08581, M1250T)
Experimental: as §1

S6K1 = biological target: T3, S6K1 (Homo sapiens, UniProt P23443)
T3 construct: gene RPS6KB1
Experimental: as §1

[1] = biological target: T4, ABL1(F317I)-phosphorylated (Homo sapiens, UniProt P00519, F317I)
T4 construct: phosphorylated
Experimental: as §1

YANK2 = biological target: T5, YANK2 (Homo sapiens, UniProt Q9NY57)
T5 construct: gene STK32B
T5 sequence (Q9NY57 whole entry): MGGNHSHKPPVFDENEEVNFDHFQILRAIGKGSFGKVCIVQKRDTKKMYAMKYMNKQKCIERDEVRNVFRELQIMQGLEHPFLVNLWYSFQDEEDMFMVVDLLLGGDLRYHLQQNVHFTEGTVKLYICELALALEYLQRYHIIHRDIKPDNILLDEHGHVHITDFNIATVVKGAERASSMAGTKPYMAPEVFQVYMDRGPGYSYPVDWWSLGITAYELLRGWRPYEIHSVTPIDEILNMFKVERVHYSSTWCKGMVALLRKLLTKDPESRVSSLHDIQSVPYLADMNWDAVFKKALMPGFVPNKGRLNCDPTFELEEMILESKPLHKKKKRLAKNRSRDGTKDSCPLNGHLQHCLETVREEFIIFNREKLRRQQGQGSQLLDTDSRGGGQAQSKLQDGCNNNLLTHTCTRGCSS
Experimental: as §1

TAOK1 = TAOK1 (Homo sapiens, UniProt Q7L7X3)
Experimental: as §1

ADCK4 = biological target: T6, ADCK4 (Homo sapiens, UniProt Q96D53)
T6 construct: gene COQ8B
Experimental: as §1

ULK3 = ULK3 (Homo sapiens, UniProt Q6PHR2)
Chain of ULK3 (Q6PHR2 whole entry): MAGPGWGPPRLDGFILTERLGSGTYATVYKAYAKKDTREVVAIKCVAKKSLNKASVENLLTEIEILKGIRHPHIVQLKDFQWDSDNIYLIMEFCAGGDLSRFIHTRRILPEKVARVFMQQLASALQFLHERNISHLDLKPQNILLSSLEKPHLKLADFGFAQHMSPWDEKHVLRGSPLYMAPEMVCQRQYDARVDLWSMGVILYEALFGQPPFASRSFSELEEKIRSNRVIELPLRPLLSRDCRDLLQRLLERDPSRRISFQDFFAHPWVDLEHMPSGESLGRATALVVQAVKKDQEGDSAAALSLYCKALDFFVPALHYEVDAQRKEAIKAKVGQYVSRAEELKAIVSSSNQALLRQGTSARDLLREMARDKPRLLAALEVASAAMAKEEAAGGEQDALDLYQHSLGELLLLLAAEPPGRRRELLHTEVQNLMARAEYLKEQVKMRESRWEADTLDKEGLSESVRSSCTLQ
Experimental: as §1

CSNK1E = CSNK1E (Homo sapiens, UniProt P49674)
Chain of CSNK1E (P49674 whole entry): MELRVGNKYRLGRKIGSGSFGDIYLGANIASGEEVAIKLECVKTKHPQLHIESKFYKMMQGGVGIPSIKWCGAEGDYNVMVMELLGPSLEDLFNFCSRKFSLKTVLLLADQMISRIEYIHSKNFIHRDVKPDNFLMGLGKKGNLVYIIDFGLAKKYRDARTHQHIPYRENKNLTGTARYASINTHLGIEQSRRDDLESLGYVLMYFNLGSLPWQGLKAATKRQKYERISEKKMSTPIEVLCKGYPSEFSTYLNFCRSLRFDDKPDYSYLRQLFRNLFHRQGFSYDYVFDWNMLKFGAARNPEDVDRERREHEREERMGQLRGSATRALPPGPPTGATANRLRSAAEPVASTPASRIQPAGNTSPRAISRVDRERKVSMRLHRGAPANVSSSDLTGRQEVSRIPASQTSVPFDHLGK
Experimental: as §1

EGFR(G719C) = EGFR(G719C) (Homo sapiens, UniProt P00533, G719C)
Experimental: as §1

FLT3(ITD,D835V) = FLT3(ITD,D835V) (Homo sapiens, UniProt P36888, D835V/ITD)
Experimental: as §1

EPHA1 = EPHA1 (Homo sapiens, UniProt P21709)
Experimental: as §1

CSNK2A2 = CSNK2A2 (Homo sapiens, UniProt P19784)
Experimental: as §1

RAF1 = RAF1 (Homo sapiens, UniProt P04049)
Chain of RAF1 (P04049 whole entry): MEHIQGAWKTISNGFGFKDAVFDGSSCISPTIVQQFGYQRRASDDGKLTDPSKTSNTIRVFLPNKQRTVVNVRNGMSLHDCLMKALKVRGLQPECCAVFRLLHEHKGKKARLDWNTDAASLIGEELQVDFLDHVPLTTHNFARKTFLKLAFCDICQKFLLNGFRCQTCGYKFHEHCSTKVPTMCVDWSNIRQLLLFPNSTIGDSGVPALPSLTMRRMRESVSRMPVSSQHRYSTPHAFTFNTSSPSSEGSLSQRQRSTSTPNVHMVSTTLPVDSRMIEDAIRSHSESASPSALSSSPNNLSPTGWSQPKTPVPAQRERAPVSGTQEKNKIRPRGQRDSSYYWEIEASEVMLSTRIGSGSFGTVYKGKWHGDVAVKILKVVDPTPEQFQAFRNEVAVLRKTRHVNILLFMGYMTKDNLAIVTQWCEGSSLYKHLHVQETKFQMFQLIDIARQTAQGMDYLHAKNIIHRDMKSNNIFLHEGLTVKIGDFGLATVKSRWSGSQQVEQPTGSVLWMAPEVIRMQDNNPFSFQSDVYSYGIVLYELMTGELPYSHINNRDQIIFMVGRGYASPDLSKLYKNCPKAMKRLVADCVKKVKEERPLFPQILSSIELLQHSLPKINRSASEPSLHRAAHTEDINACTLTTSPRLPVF
Experimental: as §1

ITK = ITK (Homo sapiens, UniProt Q08881)
Experimental: as §1

CAMK1 = CAMK1 (Homo sapiens, UniProt Q14012)
Experimental: as §1

ACVR2A = ACVR2A (Homo sapiens, UniProt P27037)
Experimental: as §1

PCTK3 = biological target: T7, PCTK3 (Homo sapiens, UniProt Q07002)
T7 construct: gene CDK18
T7 sequence (Q07002 whole entry): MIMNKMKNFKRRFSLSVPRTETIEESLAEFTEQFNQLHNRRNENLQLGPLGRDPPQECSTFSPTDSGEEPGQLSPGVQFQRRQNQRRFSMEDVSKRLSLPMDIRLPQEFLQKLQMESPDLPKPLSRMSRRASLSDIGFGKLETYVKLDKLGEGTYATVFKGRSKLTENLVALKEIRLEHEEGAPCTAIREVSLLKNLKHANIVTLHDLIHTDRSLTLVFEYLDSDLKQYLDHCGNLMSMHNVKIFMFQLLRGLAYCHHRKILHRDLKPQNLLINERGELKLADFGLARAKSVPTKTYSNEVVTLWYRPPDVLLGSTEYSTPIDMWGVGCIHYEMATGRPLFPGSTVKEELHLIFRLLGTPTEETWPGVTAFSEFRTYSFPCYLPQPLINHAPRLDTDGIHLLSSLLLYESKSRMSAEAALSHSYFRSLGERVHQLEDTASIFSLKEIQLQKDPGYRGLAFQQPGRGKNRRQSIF
Experimental: as §1

MAP4K5 = MAP4K5 (Homo sapiens, UniProt Q9Y4K4)
Chain of MAP4K5 (Q9Y4K4 whole entry): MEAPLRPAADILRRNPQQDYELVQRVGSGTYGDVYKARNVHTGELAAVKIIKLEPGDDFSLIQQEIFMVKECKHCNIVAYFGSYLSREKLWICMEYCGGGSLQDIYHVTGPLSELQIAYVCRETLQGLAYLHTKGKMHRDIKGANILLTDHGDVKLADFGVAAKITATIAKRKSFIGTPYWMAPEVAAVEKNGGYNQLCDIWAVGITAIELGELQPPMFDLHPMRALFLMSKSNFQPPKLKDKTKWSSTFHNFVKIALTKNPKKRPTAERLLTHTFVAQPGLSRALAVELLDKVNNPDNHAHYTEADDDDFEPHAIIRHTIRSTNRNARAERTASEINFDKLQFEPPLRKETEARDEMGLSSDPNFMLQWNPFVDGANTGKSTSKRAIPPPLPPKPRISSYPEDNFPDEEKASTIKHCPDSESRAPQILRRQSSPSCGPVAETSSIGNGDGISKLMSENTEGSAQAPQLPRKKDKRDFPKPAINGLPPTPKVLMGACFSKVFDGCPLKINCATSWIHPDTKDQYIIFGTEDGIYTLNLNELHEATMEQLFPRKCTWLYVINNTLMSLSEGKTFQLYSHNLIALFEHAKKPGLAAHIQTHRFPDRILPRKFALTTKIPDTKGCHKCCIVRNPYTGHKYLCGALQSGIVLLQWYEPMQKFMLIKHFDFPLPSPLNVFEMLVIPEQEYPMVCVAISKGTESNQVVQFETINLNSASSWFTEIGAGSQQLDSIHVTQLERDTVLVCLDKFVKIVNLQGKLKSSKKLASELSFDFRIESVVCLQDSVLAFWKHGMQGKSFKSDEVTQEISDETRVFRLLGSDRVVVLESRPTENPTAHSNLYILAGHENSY
Experimental: as §1

ROCK1 = ROCK1 (Homo sapiens, UniProt Q13464)
Chain of ROCK1 (Q13464 whole entry): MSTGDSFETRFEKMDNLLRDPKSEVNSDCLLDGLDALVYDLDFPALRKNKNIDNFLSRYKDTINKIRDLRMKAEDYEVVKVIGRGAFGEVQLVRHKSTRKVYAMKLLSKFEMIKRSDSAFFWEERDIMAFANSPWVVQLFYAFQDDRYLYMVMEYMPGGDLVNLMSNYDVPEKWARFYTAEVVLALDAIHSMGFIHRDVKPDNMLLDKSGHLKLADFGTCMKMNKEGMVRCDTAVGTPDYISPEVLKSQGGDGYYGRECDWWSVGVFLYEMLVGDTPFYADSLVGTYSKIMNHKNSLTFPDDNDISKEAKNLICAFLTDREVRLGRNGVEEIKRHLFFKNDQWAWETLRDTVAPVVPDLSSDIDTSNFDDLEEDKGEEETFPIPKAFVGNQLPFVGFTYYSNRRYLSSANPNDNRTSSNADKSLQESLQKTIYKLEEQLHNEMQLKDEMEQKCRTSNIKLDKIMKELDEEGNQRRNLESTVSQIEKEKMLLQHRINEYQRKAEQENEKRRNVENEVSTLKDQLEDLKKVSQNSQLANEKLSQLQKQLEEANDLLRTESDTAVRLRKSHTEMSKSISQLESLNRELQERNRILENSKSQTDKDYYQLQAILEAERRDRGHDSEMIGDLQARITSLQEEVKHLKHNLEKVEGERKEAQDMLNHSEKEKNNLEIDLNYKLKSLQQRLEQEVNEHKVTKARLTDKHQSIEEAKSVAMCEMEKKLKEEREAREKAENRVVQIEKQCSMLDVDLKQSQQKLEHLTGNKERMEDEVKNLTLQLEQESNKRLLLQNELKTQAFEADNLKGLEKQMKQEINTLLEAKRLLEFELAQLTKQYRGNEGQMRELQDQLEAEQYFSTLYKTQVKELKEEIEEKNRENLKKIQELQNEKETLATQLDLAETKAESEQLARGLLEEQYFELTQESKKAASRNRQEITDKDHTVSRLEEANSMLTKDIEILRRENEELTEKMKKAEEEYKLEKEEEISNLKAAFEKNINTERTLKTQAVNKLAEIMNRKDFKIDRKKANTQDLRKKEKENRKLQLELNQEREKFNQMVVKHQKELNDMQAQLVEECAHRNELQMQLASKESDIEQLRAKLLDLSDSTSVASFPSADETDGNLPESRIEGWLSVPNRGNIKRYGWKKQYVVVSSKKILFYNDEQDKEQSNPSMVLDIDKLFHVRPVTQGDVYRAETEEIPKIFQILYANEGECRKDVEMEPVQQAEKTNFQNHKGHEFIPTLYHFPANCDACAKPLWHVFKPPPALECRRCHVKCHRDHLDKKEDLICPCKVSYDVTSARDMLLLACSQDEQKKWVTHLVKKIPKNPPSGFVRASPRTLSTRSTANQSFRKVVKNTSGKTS
Experimental: as §1

CDKL3 = CDKL3 (Homo sapiens, UniProt Q8IVW4)
Experimental: as §1

FGFR1 = FGFR1 (Homo sapiens, UniProt P11362)
Experimental: as §1

SMILES: CNS(=O)(=O)c1ccc(N(C)C)c(Nc2ncnc3cc(OC)c(OC)cc23)c1 [compound 7, 3-((6,7-dimethoxyquinazolin-4-yl)amino)-4-(dimethylamino)-N-methylbenzenesulfonamide]
- inhibition at 1 µM (DCAMKL3): 15%
- inhibition at 1 µM (MEK3): 4%
- inhibition at 1 µM (CDKL1): 0%
- inhibition at 1 µM (MET(M1250T)): 0%
- inhibition at 1 µM (S6K1): 23%
- inhibition at 1 µM [1]: 40%
- inhibition at 1 µM (YANK2): 0%
- inhibition at 1 µM (TAOK1): 25%
- inhibition at 1 µM (ADCK4): 0%
- inhibition at 1 µM (ULK3): 29%
- inhibition at 1 µM (CSNK1E): 0%
- inhibition at 1 µM (EGFR(G719C)): 0%
- inhibition at 1 µM (FLT3(ITD,D835V)): 34%
- inhibition at 1 µM (EPHA1): 0%
- inhibition at 1 µM (CSNK2A2): 13%
- inhibition at 1 µM (RAF1): 23%
- inhibition at 1 µM (ITK): 0%
- inhibition at 1 µM (CAMK1): 0%
- inhibition at 1 µM (ACVR2A): 0%
- inhibition at 1 µM (PCTK3): 0%
- inhibition at 1 µM (MAP4K5): 0%
- inhibition at 1 µM (ROCK1): 1%
- inhibition at 1 µM (CDKL3): 0%
- inhibition at 1 µM (FGFR1): 20%
